# Test results taken from patent US11266609B2, “Bacitracin and/or daptomycin combined with cannabidiol for treatment of bacterial infections” (priority 2017, dated 2022).
# Like-named read-outs stand apart in the source and are kept apart here. Positions of bridges follow the written chain, without caps; N, C: chain ends. Non-standard residues stand in square brackets, D forms with d. Residues, ends and D or L forms follow the SMILES beside them. *: point of attachment. Ileψ(thiazoline)Cys = CC[C@H](C)[C@H](N)C1=N[C@H](C(=O)*)CS1; dOrn = NCCC[C@@H](N)C(=O)O
# Tests used:
# [1] = test system: E. faecalis (13-327129); test: microbe, parasite or virus in culture; format: cell-based, Enterococcus faecalis
# Experimental: (§1) Additional bacteria Enterococcus faecalis (13-327129), Enterococcus faecalis (16-7418), Methicillin-resistant Staphylococcus epidermidis (933010 3F-16 b4), Listeria monocytogenes EGD, Pseudomonas aeruginosa (PA01), Salmonella typhimurium (14028), Klepsiella pneumoniae (CAS55), Vibrio cholerae (A1522), and Escherichia coli (UTI89) were either grown in BHI or Lysogeny broth (LB) media.
# (§2) An ON culture was made by inoculating a bacterial colony in either 5 mL of MH or BHI and incubating at 37° C. with agitation. The antibiotic of interest was added to a row of a sterile 96-well plate (VWR) and a serial dilution was made down the rows containing 50 μL of MH or BHI media in each well, resulting in 2-fold dilution for each row. The ON culture was diluted to OD625 at approximately 1.0 followed by a 1:100 dilution to approximately OD625=0.01 of which 50 μL was added to each well to a final volume of 100 μL. The 96-well plate was incubated at 37° C. with shaking at 225 rpm for approximately 18-24 hours. Presence and absence of growth were determined by visual appearance. FIC index was calculated as follows (Alam M T et al. Antibacterial activity of different organic extracts of Achyranthes aspera and Cassia alata. J Sci Res. 2009).
# (§3) To study the bacterial spectrum of the combination, CBD and bacitracin growth measurements of other Gram-positive bacteria tests on Enterococcus faecalis, an MRSE strain and a strain of Listeria monocytogenes were performed as described in Example 1.
# (§4) The MIC for bacitracin and CBD and the respective FIC values are visualized in table 2 for the Gram-positive bacteria and are calculated based on two biological replicates.
# [2] = test system: E. faecalis (16-7418); test: microbe, parasite or virus in culture; format: cell-based, Enterococcus faecalis
# Experimental: as §1, §2, §3, §4
# [3] = test system: MRSA USA300 FPR3757; test: microbe, parasite or virus in culture; format: cell-based, Staphylococcus aureus; conditions: for FIC Index: combination of cannabidiol with the respective antibiotic, synergy <= 0.5, no interaction 0.5-4.0, antagonism > 4
# Experimental: (§5) The resistant bacterium MRSA USA300 FPR3757 (USA300) was the main used bacterium throughout this study. MRSA was grown in Brain Heart Infusion (BHI) or Müeller Hinton (MH) media on plate or in liquid cultures with agitation at 37° C.
# as §2, with “appearance.” for “appearance. FIC index was calculated as follows (Alam M T et al. Antibacterial activity of different organic extracts of Achyranthes aspera and Cassia alata. J Sci Res. 2009).”
# B) The other screen was based on fractional inhibitory concentration (FIC) index.
# [4] = test system: MRSA USA300; test: Micro dilution growth experiments using oCelloScope, CBD combined with antibiotics (FIG. 1); format: cell-based, Staphylococcus aureus; conditions: for synergistic potential in growth curves: combination with CBD 1-2 μg/mL, bacitracin 16, daptomycin 4, tetracycline 16, fosfomycin 16, dicloxacillin 0.0625, chlorhexidine 0.25, vancomycin 0.5 μg/mL (FIG. 1)
# Experimental: BCA: Background corrected absorption. ? Growth control, ? CBD, -▴- Antibiotic, ? Combination.
# as §5
# An ON culture was made by inoculating a bacterial colony in either 5 mL of MH or BHI at incubated at 37° C. with agitation. 25 μL of specific concentrations of the antibiotic and cannabinoid to be tested was added to the desired wells of a sterile 96-well plate (Thermo Scientific). 25 μL of MH or BHI media was added to the wells only containing one of the two compounds tested. The bacterial ON culture was diluted to a final OD600 nm of 0.005 and 50 μL was dispensed into each well to a final volume of 100 μL. To decrease evaporation, 2 mL of pre-heated water was added to the corners of the 96-well plate containing cavities. The plate was placed in the oCelloScope inside an incubator at 37° C. Illumination level and focus was adjusted for each well and the growth was measured for approximately 25 hours. Measurements were performed every half an hour for the first half of the time and every hour for the last half using the UniExplorer software. Data retrieved was given in Background corrected absorption (BCA), formerly known as pixel histogram summation (PHS), an algorithm enabling determination of bacterial growth kinetics resulting from images taken with the oCelloScope camera.
# A) A screen was performed using the Philips oCelloScope enabling measurements of bacterial growth in presence or absence of either cannabidiol alone or in combination with an antibiotic or antimicrobial, through a 3D scanning system in 96-well plates.
# [5] = test system: Vibrio cholerae (A1522); test: microbe, parasite or virus in culture; format: cell-based
# Experimental: as §1
# as §2, with “The 96-well plate was incubated at 37° C. with shaking at 225 rpm for approximately 18-24 hours.” left out
# To further assess the spectrum of use for the combination of CBD and bacitracin, growth of Gram-negative bacteria upon treatment was measured as well as described in Example 1. […]
# [6] = test system: L. monocytogenes EGD; test: microbe, parasite or virus in culture; format: cell-based, Listeria monocytogenes
# Experimental: as §1, §2, §3, §4
# [7] = test system: MRSE (933010 3F-16 b4); test: microbe, parasite or virus in culture; format: cell-based, Methicillin-resistant Staphylococcus epidermidis
# Experimental: as §1, §2, §3, §4
# [8] = test system: Klepsiella pneumoniae (CAS55); test: MIC, Gram-negative bacteria; format: cell-based; conditions: above tested concentrations
# Experimental: as §1, §2
# (§6) To further assess the spectrum of use for the combination of CBD and bacitracin, growth of Gram-negative bacteria upon treatment was measured as well as described in Example 1.
# (§7) The Gram-negative bacteria tested were strains of Pseudomonas aeruginosa, Salmonella typhimurium, Klepsiella pneumoniae, Vibrio cholera, and Escherichia coli. MIC for CBD and bacitracin in the Gram-negative bacteria are visualized in table 3, and were both above tested concentrations.
# [9] = test system: Salmonella typhimurium (14028); test: MIC, Gram-negative bacteria; format: cell-based; conditions: Salmonella enterica, above tested concentrations
# Experimental: as §1, §2, §6, §7
# [10] = test system: Pseudomonas aeruginosa (PA01); test: MIC, Gram-negative bacteria; format: cell-based; conditions: above tested concentrations
# Experimental: as §1, §2, §6, §7
# [11] = test system: Escherichia coli (UTI89); test: MIC, Gram-negative bacteria; format: cell-based; conditions: above tested concentrations
# Experimental: as §1, §2, §6, §7
# [12] = test system: Gram-positive bacteria including methicillin-resistant Staphylococcus aureus (MRSA); conditions: particularly against Gram-positive bacteria including MRSA; cited from earlier work
# [13] = biological target: T1, bacterial undecaprenyl pyrophosphate (UPP) synthase (Staphylococcus aureus, UniProt P60477); conditions: The Journal of Antibiotics 69, 798-805 (2016); cited from earlier work
# T1 sequence (P60477 1-256): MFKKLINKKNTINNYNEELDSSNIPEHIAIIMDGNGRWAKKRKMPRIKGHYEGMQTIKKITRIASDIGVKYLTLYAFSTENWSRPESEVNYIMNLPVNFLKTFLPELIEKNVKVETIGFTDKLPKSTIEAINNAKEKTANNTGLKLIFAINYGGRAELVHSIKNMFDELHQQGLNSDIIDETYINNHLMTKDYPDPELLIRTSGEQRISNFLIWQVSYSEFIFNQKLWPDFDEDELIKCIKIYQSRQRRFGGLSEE
# [14] = MRSA USA300 FPR3757, Table 2, two biological replicates
# [15] = USA300, Table 4, unit not given
compound,measurement,setting,value
CC[C@H](C)[C@H](N)C1=N[C@H](C(=O)N[C@@H](CC(C)C)C(=O)N[C@H](CCC(=O)O)C(=O)N[C@H](C(=O)N[C@H]2CCCCNC(=O)[C@H](CC(N)=O)NC(=O)[C@@H](CC(=O)O)NC(=O)[C@H](Cc3cnc[nH]3)NC(=O)[C@@H](Cc3ccccc3)NC(=O)[C@H]([C@@H](C)CC)NC(=O)[C@@H](CCCN)NC2=O)[C@@H](C)CC)CS1 [Bacitracin] ({Ileψ(thiazoline)Cys}-L[dE]IK[dOrn]I[dF]H[dD]N; lactam 4-C),MIC,[1]; 13-327129,128 µg/mL
same,Fold decreased bacitracin,"[1]; E. faecalis (13-327129), bacitracin MIC combined with CBD compared to bacitracin alone",16 fold
same,MIC,[2]; 16-7418,128 µg/mL
same,MIC,[3]; [14],64 µg/mL
same,Fold decreased bacitracin,"[3]; MRSA USA300 FPR3757, bacitracin MIC combined with CBD compared to bacitracin alone",16-32 fold
same,MIC,[3]; WT USA300,64 µg/mL
same,FIC Index,[3]; WT USA300,0.30
same,synergistic potential in growth curves,[4],synergistic potential
same,MIC,"[5]; Vibrio cholerae (A1522), above tested concentrations",>1024 µg/mL
same,MIC,[6]; EGD,512 µg/mL
same,Fold decreased bacitracin,"[6]; L. monocytogenes EGD, bacitracin MIC combined with CBD compared to bacitracin alone",8-16 fold
same,MIC,[7]; MRSE (933010 3F-16 b4),32 µg/mL
same,Fold decreased bacitracin,"[7]; MRSE (933010 3F-16 b4), bacitracin MIC combined with CBD compared to bacitracin alone",64 fold
"CCCCCc1cc(O)c2c(c1)OC(C)(CCC=C(C)C)C=C2 (centres unmarked) [Cannabichromene (CBC), Cannabichromene]",FIC index (with bacitracin),[3]; USA300,0.63
same,FIC index (with daptomycin),[3]; USA300,0.63
same,MIC,[3]; [15],4
"C=C(C)[C@@H]1CCC(C)=C[C@H]1c1c(O)cc(CCCCC)cc1O [Cannabidiol (CBD), Cannabidiol]",MIC,[8],> 128 µg/mL
same,MIC,[9],> 128 µg/mL
same,MIC,[10],> 128 µg/mL
same,MIC,[11],> 128 µg/mL
same,MIC,"[1]; Enterococcus faecalis, E. faecalis (13-327129), read-out: MIC",16 µg/mL
same,MIC,"[2]; Enterococcus faecalis, E. faecalis (16-7418), read-out: MIC",16 µg/mL
same,MIC,[3]; [14],4 µg/mL
same,MIC,[3]; Staphylococcus aureus,4 µg/mL
same,MIC,[5]; Vibrio cholerae,> 128 µg/mL
same,MIC,"[6]; Listeria monocytogenes, L. monocytogenes EGD, read-out: MIC",4 µg/mL
same,MIC,"[7]; Staphylococcus epidermidis, MRSE",4 µg/mL
"CCCCCc1cc(O)c(C/C=C(\C)CCC=C(C)C)c(O)c1 [Cannabigerol (CBG), Cannabigerol]",FIC index (with bacitracin),[3]; USA300,0.88
same,FIC index (with daptomycin),[3]; USA300,1.0
same,MIC,[3]; [15],4
CO/N=C(\C(=O)N[C@@H]1C(=O)N2C(C(=O)O)=C(CSc3nc(=O)c(=O)[nH]n3C)CS[C@H]12)c1csc(N)n1 [Ceftriaxone],MIC,[3]; Staphylococcus aureus,32 µg/mL
same,FIC Index,[3]; WT USA300,1.5
[H]/N=C(\N/C(=N/[H])NCCCCCCNC(=N)NC(=N)Nc1ccc(Cl)cc1)Nc1ccc(Cl)cc1 [Chlorhexidine],MIC,[3]; Staphylococcus aureus,1 to 2 µg/mL
same,FIC Index,[3]; WT USA300,1
same,synergistic potential in growth curves,[4],no synergistic potential
CCCCCCCCCC(=O)N[C@@H](Cc1c[nH]c2ccccc12)C(=O)N[C@H](CC(N)=O)C(=O)N[C@@H](CC(=O)O)C(=O)N[C@@H]1C(=O)NCC(=O)N[C@@H](CCCN)C(=O)N[C@@H](CC(=O)O)C(=O)N[C@H](C)C(=O)N[C@@H](CC(=O)O)C(=O)NCC(=O)N[C@H](CO)C(=O)N[C@@H]([C@H](C)CC(=O)O)C(=O)N[C@@H](CC(=O)c2ccccc2N)C(=O)O[C@@H]1C [Daptomycin],MIC,[3]; USA300,16 µg/mL
same,synergistic potential in growth curves,[4],to some degree
Cc1onc(-c2c(Cl)cccc2Cl)c1C(=O)N[C@@H]1C(=O)N2[C@@H]1SC(C)(C)[C@@H]2C(=O)O [Dicloxacillin],MIC,[3]; Staphylococcus aureus,0.25 µg/mL
same,FIC Index,[3]; WT USA300,2
same,synergistic potential in growth curves,[4],no synergistic potential
C[C@@H]1O[C@@H]1P(=O)(O)O [Fosfomycin],MIC,[3]; Staphylococcus aureus,32 µg/mL
same,"synergistic/antagonistic potential in growth curves, lower concentration","[4]; combination with CBD 1 μg/mL, fosfomycin 8 μg/mL (FIG. 1E)",antagonistic potential
same,synergistic potential in growth curves,[4],to some degree
COc1cc(O)c2c(O)c3c(c4c2c1C1(C4)C(C)=CCCC1(C)C)C(O)C1(O)CC(=O)C(C(C)=O)=C(O)C1(O)C3=O (centres unmarked) [Spirohexaline],antimicrobial activity,[12],showed antimicrobial activity
same,IC50,[13],9 µM
CN[C@H](CC(C)C)C(=O)N[C@H]1C(=O)N[C@@H](CC(N)=O)C(=O)N[C@H]2C(=O)N[C@H]3C(=O)N[C@H](C(=O)N[C@H](C(=O)O)c4cc(O)cc(O)c4-c4cc3ccc4O)[C@H](O)c3ccc(c(Cl)c3)Oc3cc2cc(c3O[C@@H]2O[C@H](CO)[C@@H](O)[C@H](O)[C@H]2O[C@H]2C[C@](C)(N)[C@H](O)[C@H](C)O2)Oc2ccc(cc2Cl)[C@H]1O [Vancomycin],MIC,[3]; Staphylococcus aureus,2 µg/mL
same,FIC Index,[3]; WT USA300,2
same,synergistic potential in growth curves,[4],no synergistic potential
Viridicatumtoxin,antimicrobial activity,[12],showed antimicrobial activity
same,IC50,[13],4 µM
